Data from patent publication US20240199587A1, “HETEROCYCLIC COMPOUNDS” (Hoffmann-La Roche Inc., priority 2021, published 2024).

Biological target: T1, MAGL (Homo sapiens, UniProt Q99685)
T1 sequence (Q99685 1-303): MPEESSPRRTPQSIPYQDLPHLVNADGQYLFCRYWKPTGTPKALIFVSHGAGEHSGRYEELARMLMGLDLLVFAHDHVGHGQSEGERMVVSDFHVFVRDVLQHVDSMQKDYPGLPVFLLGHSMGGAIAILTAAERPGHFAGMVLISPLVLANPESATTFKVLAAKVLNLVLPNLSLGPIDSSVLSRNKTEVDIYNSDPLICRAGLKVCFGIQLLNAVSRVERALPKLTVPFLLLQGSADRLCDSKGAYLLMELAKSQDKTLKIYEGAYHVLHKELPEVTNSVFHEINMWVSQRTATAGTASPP
Test: 2-AG assay (MAGL inhibitory activity, hydrolysis of 2-arachidonoylglycerol to arachidonic acid followed by mass spectrometry)
Type: biochemical
Settings: 8 μM 2-arachidonoylglycerol, 15 min pre-incubation, 30 min incubation at RT, RapidFire MS readout
In short: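 Arachidonic acid released from 8 μM 2-arachidonoylglycerol was quantified by online SPE triple-quadrupole MS (negative ESI, 303.1→259.1), normalised to d8-arachidonic acid internal standard. Reaction ran 30 min at RT after 15 min RT compound pre-incubation with […] MAGL in TRIS/EDTA/Tween-20 buffer, 2.5% DMSO.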

Compound | IC50
CS(=O)(=O)c1ccc(CN2CCC3(CC2)CN(C(=O)N2CC4(CC(n5cnc(C6CC6)n5)C4)C2)C3)cc1 [Example 486, [6-(3-cyclopropyl-1,2,4-triazol-1-yl)-2-azaspiro[3.3]heptan-2-yl]-[7-[(4-methylsulfonylphenyl)methyl]-2,7-diazaspiro[3.5]nonan-2-yl]methanone] | 14.6 nM
CS(=O)(=O)c1cccc(CC2CC3(C2)CN(C(=O)N2CC4(CC(n5cnc(C6(O)CC6)n5)C4)C2)C3)c1 [Example 490, [6-[3-(1-hydroxycyclopropyl)-1,2,4-triazol-1-yl]-2-azaspiro[3.3]heptan-2-yl]-[6-[(3-methylsulfonylphenyl)methyl]-2-azaspiro[3.3]heptan-2-yl]methanone] | 6.69 nM
CS(=O)(=O)c1ccc(CC2CC3(C2)CN(C(=O)N2CC4(CC(n5cnc(C6(O)CC6)n5)C4)C2)C3)cc1 [Example 491, [6-[3-(1-hydroxycyclopropyl)-1,2,4-triazol-1-yl]-2-azaspiro[3.3]heptan-2-yl]-[6-[(4-methylsulfonylphenyl)methyl]-2-azaspiro[3.3]heptan-2-yl]methanone] | 6.78 nM
O=C(N1CC(c2ccc(NC3(C(F)(F)F)CC3)nc2)C1)N1CC2(CC(n3cnc(C4(O)CC4)n3)C2)C1 [Example 492, [6-[3-(1-hydroxycyclopropyl)-1,2,4-triazol-1-yl]-2-azaspir[3.3]heptan-2-yl]-[3-[6-[[1-(trifluoromethyl)cyclopropyl]amino]-3-pyridyl]azetidin-1-yl]methanone] | 11.1 nM
O=C(N1CC(c2ccc(N3CC(C(F)(F)F)C3)nc2)C1)N1CC2(CC(n3cnc(C4(O)CC4)n3)C2)C1 [Example 496, [6-[3-(1-hydroxycyclopropyl)-1,2,4-triazol-1-yl]-2-azaspiro[3.3]heptan-2-yl]-[3-[6-[3-(trifluoromethyl)azetidin-1-yl]-3-pyridyl]azetidin-1-yl]methanone] | 9.34 nM
O=C(N1CC2(CC(n3cnc(C4(O)CC4)n3)C2)C1)N1CC2(C1)CN(S(=O)(=O)c1cccc(OC(F)(F)F)c1)C2 [Example 497, [6-[3-(1-hydroxycyclopropyl)-1,2,4-triazol-1-yl]-2-azaspiro[3.3]heptan-2-yl]-[2-[3-(trifluoromethoxy)phenyl]sulfonyl-2,6-diazaspiro[3.3]heptan-6-yl]methanone] | 84 nM

Stronger by IC50, values ahead:

IC50 | Compound
3.93 nM | O=C(N1CC2(CC(Cc3cnc(C(F)(F)F)cn3)C2)C1)N1CC2(CC(n3cnc(C4(O)CC4)n3)C2)C1 [Example 487, [6-[3-(1-hydroxycyclopropyl)-1,2,4-triazol-1-yl]-2-azaspiro[3.3]heptan-2-yl]-[6-[[5-(trifluoromethyl)pyrazin-2-yl]methyl]-2-azaspiro[3.3]heptan-2-yl]methanone]
4.41 nM | CS(=O)(=O)c1ccc(CC2CC3(C2)CN(C(=O)N2CC4(CC(n5cnc(C6CC6)n5)C4)C2)C3)nc1 [Example 488, [6-(3-cyclopropyl-1,2,4-triazol-1-yl)-2-azaspiro[3.3]heptan-2-yl]-[6-[(5-methylsulfonyl-2-pyridyl)methyl]-2-azaspiro[3.3]heptan-2-yl]methanone]
3.28 nM | CS(=O)(=O)c1cncc(CC2CC3(C2)CN(C(=O)N2CC4(CC(n5cnc(C6CC6)n5)C4)C2)C3)c1 [Example 489, [6-(3-cyclopropyl-1,2,4-triazol-1-yl)-2-azaspiro[3.3]heptan-2-yl]-[6-[(5-methylsulfonyl-3-pyridyl)methyl]-2-azaspiro[3.3]heptan-2-yl]methanone]
0.98 nM | O=C(N1CC2(CC(Cc3ccc(C(F)(F)F)nc3)C2)C1)N1CC2(CC(n3cnc(C4(O)CC4)n3)C2)C1 [Example 495, [6-[3-(1-hydroxycyclopropyl)-1,2,4-triazol-1-yl]-2-azaspiro[3.3]heptan-2-yl]-[6-[[6-(trifluoromethyl)-3-pyridyl]methyl]-2-azaspiro[3.3]heptan-2-yl]methanone]
